Experiments:
HCT116 cells = experiment: RT-qPCR of p53 targets, HCT116 parental and PBRM1 KO cells; assay type: cell-based; parameters: PUMA expression / PIDD expression: reference not given here; conditions: 50 μM, 24 h
Experimental: Total RNA was extracted from cells using the RNeasy Plus Mini Kit (74136, Qiagen), and the concentration was measured using the NanoDrop ND-1000 system (Thermo Scientific). Reverse transcription was performed using the First Strand cDNA Synthesis Kit (NP100042, Origen) with 0.5 µg total RNA. Real-time PCR was performed with Maxima SYBR Green qPCR Master Mix (K0253, Thermo Scientific) using the Roche LightCycler 480. The primers used for real-time PCR are listed as follows: q-GAPDH-F: […], q-GAPDH-R: […], q-CDKN1A-F: […], q-CDKN1A-R: […], q-MDM2-F: […], q-MDM2-R: […], q-BAX-F: […], q-BAX-R: […], q-PUMA-F: […], q-PUMA-R: […], q-NOXA-F: […], q-NOXA-R: […], q-GADD45a-F: […], q-GADD45a-R: […], q-APAF1-F: […], q-APAF1-R: […], q-BAI1-F: […], q-BAI1-R: […], q-BCL2A1-F: […], q-BCL2A1-R: g[…], q-BTG2-F: […], q-BTG2-R: […], q-CDC25c-F: […], q-CDC25c-R: […], q-FAS-F: […], q-FAS-R: […], q-PIDD-F: […], q-PIDD-R: […], q-RPRM-F: […], q-RPRM-R: […], q-TNFRSF10B-F: […] and q-TNFRSF10B-R: […]. GAPDH was used as an internal control. Data are shown as mean ± SEM for three independent experiments.
Supplementary Figure 4. PBRM1 is required for full p53 transcriptional activity.
a, b. HCT116 parental and PBRM1 KO cells (combination of eight clones) were treated with
(a). RNA was extracted and reverse transcribed from the indicated cells treated with 50 μM
etoposide. […]
p-values were calculated using the paired two -tailed Student’s t-test. c, d. […]

SLR24 cells = experiment: Immunoblot of p53 targets, PBRM1-null SLR24 cells; assay type: cell-based; conditions: 50 μM etoposide
Experimental: The band intensity of indicated protein was measured with Bio-rad Image Lab 4.1, and the relative ratios were calculated over the signal intensity of Vinculin in the corresponding lanes. c–e. Nude mice xenograft analyses were performed with Ren-01 PBRM1 KO cells expressing GFP (left flank) or PBRM1 (right flank). Representative photographs of a mouse (c, top) and tumors (c, bottom). Tumors were excised and weighed, and data are presented as mean ± SEM (d). p-values were calculated using the paired two-tailed Student’s t-test. Tumors were stained for PBRM1 and p21 expression via IHC (e). Scale bar: 200 μm. f–h Nude mice xenograft analyses were performed with Ren-01 PBRM1 KO cells expressing wild-type PBRM1 (left flank) or the BD4* mutant PBRM1 (right flank). Tumors were excised and weighed, and data are presented as mean ± SEM (g). p-values were calculated using the paired two-tailed Student’s t-test. Representative photographs of a mouse (f, top) and tumors (f, bottom). Tumors were stained for PBRM1 and p21 expression via IHC analysis (h). Scale bar: 200 μm. Source data are provided as a Source Data file.
After washing with ice-cold PBS, cells were scraped on ice and centrifuged at 10,000 × g for 1 min at 4 °C. For immunoblot analysis, cell pellets were lysed in 1% SDS containing a protease inhibitor cocktail followed by sonication with a FB50 sonic dismembrator (Fisher Scientific) at 20% amplitude for 15 s twice. After centrifuging for 10 min at 14,000 × g, the supernatants were combined with 5X SDS loading buffer (5% mercaptoethanol, 0.05% Bromophenol blue, 30% glycerol, 10% SDS, 250 mM Tris-HCl (pH 6.8)), boiled for 5 min and used in SDS-PAGE. After standard western blot procedures, the blots were developed using the ImageQuant LAS 4000 (GE healthcare Life Sciences) or ChemiDoc MP Imaging System (Bio-rad) with HyGLO™ Chemiluminescent HRP Detection Reagent (E2500, Denville Scientific) or Immobilon™ Western Chemiluminescent HRP Substrate (WBKLS0500, Millipore).

COc1cc([C@@H]2c3cc4c(cc3[C@@H](O[C@@H]3O[C@@H]5CO[C@@H](C)O[C@H]5[C@H](O)[C@H]3O)[C@H]3COC(=O)[C@H]23)OCO4)cc(OC)c1O [Etoposide]
APAF1 expression (HCT116 cells; HCT116-PBRM1-KOs, assay 1): 3.8371
BAX expression (HCT116 cells; HCT116-PBRM1-KOs, assay 1): 1.7963
BCL2A1 expression (HCT116 cells; HCT116-PBRM1-KOs, assay 1): 19.7667
BTG2 expression (HCT116 cells; HCT116-PBRM1-KOs, assay 1): 11.7942
CDKN1A expression (HCT116 cells; HCT116-PBRM1-KOs, assay 1): 22.8639
GADD45A expression (HCT116 cells; HCT116-PBRM1-KOs, assay 1): 3.9586
MDM2 expression (HCT116 cells; HCT116-PBRM1-KOs, assay 1): 3.9724
NOXA expression (HCT116 cells; HCT116-PBRM1-KOs, assay 1): 3.0525
PIDD expression (HCT116 cells; HCT116-PBRM1-KOs, assay 1): 2.3295
PUMA expression (HCT116 cells; HCT116-PBRM1-KOs, assay 1): 4.8793
RPRM expression (HCT116 cells; HCT116-PBRM1-KOs, assay 1): 2.5491
APAF1 expression (HCT116 cells; HCT116-PBRM1-KOs, assay 2): 1.6529
BAX expression (HCT116 cells; HCT116-PBRM1-KOs, assay 2): 2.3457
BCL2A1 expression (HCT116 cells; HCT116-PBRM1-KOs, assay 2): 6.9761
BTG2 expression (HCT116 cells; HCT116-PBRM1-KOs, assay 2): 7.21
CDKN1A expression (HCT116 cells; HCT116-PBRM1-KOs, assay 2): 14.0419
GADD45A expression (HCT116 cells; HCT116-PBRM1-KOs, assay 2): 2.1289
MDM2 expression (HCT116 cells; HCT116-PBRM1-KOs, assay 2): 5.9039
NOXA expression (HCT116 cells; HCT116-PBRM1-KOs, assay 2): 3.6808
PIDD expression (HCT116 cells; HCT116-PBRM1-KOs, assay 2): 1.4093
PUMA expression (HCT116 cells; HCT116-PBRM1-KOs, assay 2): 7.235
RPRM expression (HCT116 cells; HCT116-PBRM1-KOs, assay 2): 2.7797
APAF1 expression (HCT116 cells; HCT116-PBRM1-KOs, assay 3): 1.6644
BAX expression (HCT116 cells; HCT116-PBRM1-KOs, assay 3): 2.3134
BCL2A1 expression (HCT116 cells; HCT116-PBRM1-KOs, assay 3): 9.2884
BTG2 expression (HCT116 cells; HCT116-PBRM1-KOs, assay 3): 7.1602
CDKN1A expression (HCT116 cells; HCT116-PBRM1-KOs, assay 3): 10.4953
GADD45A expression (HCT116 cells; HCT116-PBRM1-KOs, assay 3): 3.1241
MDM2 expression (HCT116 cells; HCT116-PBRM1-KOs, assay 3): 5.945
NOXA expression (HCT116 cells; HCT116-PBRM1-KOs, assay 3): 3.6554
PIDD expression (HCT116 cells; HCT116-PBRM1-KOs, assay 3): 1.4897
PUMA expression (HCT116 cells; HCT116-PBRM1-KOs, assay 3): 3.2117
RPRM expression (HCT116 cells; HCT116-PBRM1-KOs, assay 3): 1.3828
APAF1 expression (HCT116 cells; HCT116, assay 1): 4.2871
BAX expression (HCT116 cells; HCT116, assay 1): 2.7702
BCL2A1 expression (HCT116 cells; HCT116, assay 1): 22.8639
BTG2 expression (HCT116 cells; HCT116, assay 1): 12.7286
CDKN1A expression (HCT116 cells; HCT116, assay 1): 28.6408
GADD45A expression (HCT116 cells; HCT116, assay 1): 4.4076
MDM2 expression (HCT116 cells; HCT116, assay 1): 4.6589
NOXA expression (HCT116 cells; HCT116, assay 1): 3.0738
PIDD expression (HCT116 cells; HCT116, assay 1): 3.0525
PUMA expression (HCT116 cells; HCT116, assay 1): 4.4076
RPRM expression (HCT116 cells; HCT116, assay 1): 3.6301
APAF1 expression (HCT116 cells; HCT116, assay 2): 2.1372
BAX expression (HCT116 cells; HCT116, assay 2): 2.6851
BCL2A1 expression (HCT116 cells; HCT116, assay 2): 13.3173
BTG2 expression (HCT116 cells; HCT116, assay 2): 8.1398
CDKN1A expression (HCT116 cells; HCT116, assay 2): 17.6304
GADD45A expression (HCT116 cells; HCT116, assay 2): 2.5584
MDM2 expression (HCT116 cells; HCT116, assay 2): 5.7624
NOXA expression (HCT116 cells; HCT116, assay 2): 3.8683
PIDD expression (HCT116 cells; HCT116, assay 2): 2.0705
PUMA expression (HCT116 cells; HCT116, assay 2): 5.3332
RPRM expression (HCT116 cells; HCT116, assay 2): 2.9362
APAF1 expression (HCT116 cells; HCT116, assay 3): 2.021
BAX expression (HCT116 cells; HCT116, assay 3): 2.7226
BCL2A1 expression (HCT116 cells; HCT116, assay 3): 11.9548
BTG2 expression (HCT116 cells; HCT116, assay 3): 8.4269
CDKN1A expression (HCT116 cells; HCT116, assay 3): 15.6707
GADD45A expression (HCT116 cells; HCT116, assay 3): 3.0105
MDM2 expression (HCT116 cells; HCT116, assay 3): 5.4264
NOXA expression (HCT116 cells; HCT116, assay 3): 4.6765
PIDD expression (HCT116 cells; HCT116, assay 3): 1.9453
PUMA expression (HCT116 cells; HCT116, assay 3): 3.1939
RPRM expression (HCT116 cells; HCT116, assay 3): 2.0097
p21, PUMA and MDM2 expression after DNA damage, wild-type vs BD4* PBRM1 or GFP (SLR24 cells; SLR24): significantly induced by wild-type but not BD4* mutant PBRM1 or GFP
p21 or PUMA induction (SLR24 cells; SLR24 cells): barely
p21 and PUMA induction with PBRM1-BD4* (SLR24 cells; SLR24 expressing PBRM1-BD4*): failed to induce their expression
p21 and PUMA induction with PBRM1-wt (SLR24 cells; SLR24 expressing PBRM1-wt, all time points): strongly induced

— article PMC6925188, “PBRM1 acts as a p53 lysine-acetylation reader to suppress renal tumor growth” (Nature Communications, 2019)
